In patent US9789101B2, “Methods and compositions for treating microbial infection using pyrroloquinone” (HELPERBY THERAPEUTICS LIMITED, priority 2010, dated 2017):
Counter-ions that a name gives are not always drawn. Like-named read-outs stand apart in the source and are kept apart here.

Columns and labels:
[1] = test system: stationary phase Staphylococcus aureus; assay: In vitro efficacy test against stationary phase Staphylococcus aureus (CFU counts); type: cell-based, Staphylococcus aureus (Oxford)
Experimental: (§1) Staphylococcus aureus (Oxford); Gram positive; Reference strain.
Stationary phase growth of methicilin sensitive Staphylococcus aureus (MSSA) was carried out as follows:
Subculture of the bacterial strains on agar plates: Overnight S. aureus bacterial cultures were stored at −70° C. with 20% glycerol (cryoprotectant). A loopful of the frozen cells was streaked on a blood agar plate which was incubated at 37° C. overnight (or longer) as culture plate A. A single colony of each strain from the culture plate A was streaked on the blood agar plate which was incubated at 37° C. overnight (or longer) as culture plate B. The culture plate B was stored at 4° C. for a week and served as the initial inoculation plate.
Bacterial growth in broth culture: A single colony from culture plate B was inoculated in 10 ml of nutrient broth (No. 2, (Oxoid)), which was incubated overnight at 37° C. with continuous shaking at 120 rpm. 200 μl of the overnight culture was added into a 500 ml bottle containing 100 ml of nutrient broth. The 100 ml culture was incubated at 37° C. with continuous shaking for 6 to 7 days. Viability of the cultures is estimated by colony forming unit (CFU) counts at 2 hour intervals for the first 24 hours and 12 to 24 hours afterwards.
Colony Forming Unit (CFU) counts were performed as follows: From serial 10-fold dilutions of the cultures, 100 μl samples were added to one third of blood agar plates (Oxoid) in triplicate. CFUs were counted using an aCoLyte colony counter (Synbiosis) after incubation of the plates at 37° C. for 24 hours or longer.
7 day old stationary phase cultures were used. The stationary phase cultures were diluted to obtain CFU counts in the cell suspension of 10^6 to 10^7 CFU/ml. The cell suspension was used to test drug sensitivity.
(§2) HT61 was dissolved in DMSO to the stock concentration of 10 mg/ml.
HT00800059 was dissolved in H2O to the stock solution 10 mg/ml
The drugs were first diluted as follows: • 7.2 μl of HT61 at 10 mg/ml was added into 292.8 μl of H2O followed by diluting 2 fold, 3 times. • 57.6 μl of HT00800059 at 10 mg/ml was added into 242.4 μl of H2O followed by diluting 2 fold, 2 times. • 10 μl of HT00800059 from each dilution was added into the wells of a 96 well plate followed by the addition of 290 μl of bacterial cell suspension to make the final concentrations of HT00800059 at 64, 32 and 0 μg/ml. • […]
In combination of two drugs: 10 μl of HT61 from each dilution was added into the wells of a 96 well plate followed by the addition of 10 μl of HT00800059 from each dilution. […]

[2] = test system: log phase Staphylococcus aureus; assay: Chequerboard analysis of HT00800059 and HT61 against log phase Staphylococcus aureus; type: cell-based, Staphylococcus aureus (Oxford)
Experimental: as §1
Log phase growth of methicilin sensitive Staphylococcus aureus (MSSA) was carried out as follows: • Bacteria were grown in 10 ml of nutrient broth (No. 2, (Oxoid)) overnight at 37° C. with continuous shaking at 120 rpm. The overnight cultures were diluted 1000× with iso-sensitest broth. The cultures were incubated at 37° C. with shaking for 1-2 hours to reach log CFU 6. Viability of the bacteria was estimated by colony forming unit (CFU) counts. From serial 10-fold dilutions of the experimental cultures, 100 μl samples were added to triplicate plates of nutrient agar plates (Oxoid) or blood agar plates (Oxoid). CFUs were counted after incubation of the plates at 37° C. for 24 hours.
Bacterial cultures: 10 μl of overnight cultures was added to 10 ml of fresh iso-sensitest broth to make the inoculation to 10^6 CFU/ml. 290 μl of the cell suspension was added to each well of the 96 well plate, which was incubated at 37° C. for 24 hours. 300 μl of iso-sensitest broth without bacterial cells were added to wells of the plate as a no bacterial control.
MIC determination: The optical density of the bacterial cells was read at 405 nm using a plate reader (Bio TEK). The MIC concentration was determined as the lowest concentration of drug which inhibits the bacterial growth.
as §2
HT00800059 was dissolved in H2O to the stock solution 30.07 mg/ml.
The drugs were first diluted as follows: • 28.8 μl of HT61 at 10 mg/ml was added into 271.2 μl of H2O followed by diluting 2 fold for 6 times.
Both drugs were mixed as following pattern: 10 μl of HT00800059 from each dilution was added into the wells of a 96 well plate from top to bottom and 10 μl of HT61 from each dilution was added to the same 96 well plate from left to right. After addition of 280 μl log phase cell suspension, the final concentrations of drugs for each well in the 96 well plate are shown in the table below.
Incubation of the compounds with the bacterial suspension was carried out for 24 hours. The kill effect of the drug combination and signal drug MIC was measured by optical density reading at 405 nm with a plate reader (Bio TEK). The MIC concentration was determined as the lowest concentration of drug which inhibits the bacterial growth.
The fractional inhibitory concentration (FIC) index was carried out as follows: (MIC of drug A, tested in combination)/(MIC of drug A, tested alone)+(MIC of drug B, tested in combination)/(MIC of drug B, tested alone). The interaction was defined as synergistic if the FIC index was <1, additive if the FIC index was =1 and antagonistic if the FIC index was >1.

[3] = test system: clinically latent microorganisms; assay: Screening for ability to kill clinically latent microorganisms (method of WO2000028074); type: cell-based; conditions: observed by the Applicant
Description: International Patent Application, Publication Number WO2000028074 describes a method of screening compounds to determine their ability to kill clinically latent microorganisms. […] This observation has necessitated the development of novel antimicrobials which may be used to kill clinically latent microorganisms.
By way of example, WO2000028074 describes a suitable method of screening compounds to determine their ability to kill clinically latent microorganisms. A typical method may include the following steps: • (1) growing a bacterial culture to stationery phase; • (2) treating the stationery phase culture with one or more antimicrobial agents at a concentration and or time sufficient to kill growing bacteria, thereby selecting a phenotypically resistant sub-population; • (3) incubating a sample of the phenotypically resistant subpopulation with one or more test compounds or agents; and • (4) assessing any antimicrobial effects against the phenotypically resistant subpopulation.

SMILES	CFU killed ([1]; 32 μg/ml, over 8 hours)	CFU killed ([1]; 64 μg/ml, over 6 hours)	MIC ([2]; Staphylococcus aureus)	MIC ([2]; Staphylococcus aureus, read-out: alone MIC)	MIC ([2]; Staphylococcus aureus, with HT61 4 μg/ml, Plate 1, read-out: MIC of HT00800059 + HT61)	MIC ([2]; drug alone, Plate 2)	HT00800059 MIC in combination ([2]; with HT61 4 μg/ml)	MIC of HT00800059 + HT61 ([2]; with HT61 4 μg/ml, Plate 2)	activity against clinically latent microorganisms [3]
CCCCOc1ccc(C(=O)CCN2CCCCC2)cc1 [HT00800059, dyclonine (1-(4-Butoxyphenyl)-3-(1-piperidinyl)-1-propanone) hydrochloride]	about 10^4 CFU	about 10^7 CFU	512 µg/mL	512 µg/mL	128 µg/mL	512 µg/mL	128 µg/mL	128 µg/mL	–
C/C(=C\C(=O)OCCCCCCCCC(=O)O)C[C@@H]1OC[C@H](C[C@@H]2O[C@H]2[C@@H](C)[C@H](C)O)[C@@H](O)[C@H]1O [Mupirocin]	–	–	–	–	–	–	–	–	little or no activity
